Assay results from patent US20240208964A1, “PYRIDOPYRIMIDINES AND METHODS OF THEIR USE” (PYRIDOPYRIMIDINES AND METHODS OF THEIR USE, priority 2020, published 2024).

These compounds were tested against full-length human PIKFYVE (GST-PIKFYVE) (Homo sapiens (Human), UniProt Q9Y2I7, L932S/Q1183K/Q995L/S1033A/S696N/T998S) (assay: PIKfyve biochemical assay (ADP-Glo Kinase assay, Carna Biosciences)). Conditions: ADP-Glo, full-length human PIKFYVE; read-out: hPIKfyve IC50.
Description: PIKfyve Biochemical Assay. The biochemical PIKFyve inhibition assays were run by Carna Biosciences according to proprietary methodology based on the Promega ADP-Glo™ Kinase assay. A full-length human PIKFYVE [1-2098(end) amino acids and S696N, L932S, Q995L, T998S, S1033A and Q1183K of the protein having the sequence set forth in NCBI Reference Sequence No. NP_055855.2] was expressed as N-terminal GST-fusion protein (265 kDa) using baculovirus expression system. GST-PIKFYVE was purified by using glutathione sepharose chromatography and used in an ADP-Glo™ Kinase assay (Promega). Reactions were set up by adding the test compound solution, substrate solution, ATP solution and kinase solution, each at 4× final concentrations. Reactions were prepared with assay buffer (50 mM MOPS, 1 mM DTT, pH7.2), mixed, and incubated in black 384 well polystyrene plates for 1 hour at room temperature. ADP-Glo™ reagent was then added for 40 minutes, followed by kinase detection reagent for an additional 40 minutes. The kinase activity was evaluated by detecting relative light units on a luminescence plate reader. Samples were run in duplicate from 10 μM to 3 nM. […] IC50 values were calculated from concentration vs % inhibition curves by fitting to a four-parameter logistic curve.
The biochemical PIKFyve inhibition assays were run by Carna Biosciences according to proprietary methodology based on the Promega ADP-Glo™ Kinase assay. A full-length human PIKFYVE [1-2098(end) amino acids and S696N, L932S, Q995L, T998S, S1033A and Q1183K of accession number NP_055855.2] was expressed as N-terminal GST-fusion protein (265 kDa) using baculovirus expression system. GST-PIKFYVE was purified by using glutathione sepharose chromatography and used in an ADP-Glo™ Kinase assay (Promega).
Reactions were set up by adding the test compound solution, substrate solution, ATP solution and kinase solution, each at 4× final concentrations. Reactions were prepared with assay buffer (50 mM MOPS, 1 mM DTT, pH7.2), mixed, and incubated in black 384 well polystyrene plates for 1 hour at room temperature. ADP-Glo™ reagent was then added for 40 minutes, followed by kinase detection reagent for an additional 40 minutes. The kinase activity was evaluated by detecting relative light units on a luminescence plate reader. Samples were run in duplicate from 10 uM to 3 nM. […] IC50 values were calculated from concentration vs % inhibition curves by fitting to a four-parameter logistic curve.

Chain of full-length human PIKFYVE (GST-PIKFYVE) (Q9Y2I7 whole entry S696N/L932S/Q995L/T998S/S1033A/Q1183K, the tested form may be a part): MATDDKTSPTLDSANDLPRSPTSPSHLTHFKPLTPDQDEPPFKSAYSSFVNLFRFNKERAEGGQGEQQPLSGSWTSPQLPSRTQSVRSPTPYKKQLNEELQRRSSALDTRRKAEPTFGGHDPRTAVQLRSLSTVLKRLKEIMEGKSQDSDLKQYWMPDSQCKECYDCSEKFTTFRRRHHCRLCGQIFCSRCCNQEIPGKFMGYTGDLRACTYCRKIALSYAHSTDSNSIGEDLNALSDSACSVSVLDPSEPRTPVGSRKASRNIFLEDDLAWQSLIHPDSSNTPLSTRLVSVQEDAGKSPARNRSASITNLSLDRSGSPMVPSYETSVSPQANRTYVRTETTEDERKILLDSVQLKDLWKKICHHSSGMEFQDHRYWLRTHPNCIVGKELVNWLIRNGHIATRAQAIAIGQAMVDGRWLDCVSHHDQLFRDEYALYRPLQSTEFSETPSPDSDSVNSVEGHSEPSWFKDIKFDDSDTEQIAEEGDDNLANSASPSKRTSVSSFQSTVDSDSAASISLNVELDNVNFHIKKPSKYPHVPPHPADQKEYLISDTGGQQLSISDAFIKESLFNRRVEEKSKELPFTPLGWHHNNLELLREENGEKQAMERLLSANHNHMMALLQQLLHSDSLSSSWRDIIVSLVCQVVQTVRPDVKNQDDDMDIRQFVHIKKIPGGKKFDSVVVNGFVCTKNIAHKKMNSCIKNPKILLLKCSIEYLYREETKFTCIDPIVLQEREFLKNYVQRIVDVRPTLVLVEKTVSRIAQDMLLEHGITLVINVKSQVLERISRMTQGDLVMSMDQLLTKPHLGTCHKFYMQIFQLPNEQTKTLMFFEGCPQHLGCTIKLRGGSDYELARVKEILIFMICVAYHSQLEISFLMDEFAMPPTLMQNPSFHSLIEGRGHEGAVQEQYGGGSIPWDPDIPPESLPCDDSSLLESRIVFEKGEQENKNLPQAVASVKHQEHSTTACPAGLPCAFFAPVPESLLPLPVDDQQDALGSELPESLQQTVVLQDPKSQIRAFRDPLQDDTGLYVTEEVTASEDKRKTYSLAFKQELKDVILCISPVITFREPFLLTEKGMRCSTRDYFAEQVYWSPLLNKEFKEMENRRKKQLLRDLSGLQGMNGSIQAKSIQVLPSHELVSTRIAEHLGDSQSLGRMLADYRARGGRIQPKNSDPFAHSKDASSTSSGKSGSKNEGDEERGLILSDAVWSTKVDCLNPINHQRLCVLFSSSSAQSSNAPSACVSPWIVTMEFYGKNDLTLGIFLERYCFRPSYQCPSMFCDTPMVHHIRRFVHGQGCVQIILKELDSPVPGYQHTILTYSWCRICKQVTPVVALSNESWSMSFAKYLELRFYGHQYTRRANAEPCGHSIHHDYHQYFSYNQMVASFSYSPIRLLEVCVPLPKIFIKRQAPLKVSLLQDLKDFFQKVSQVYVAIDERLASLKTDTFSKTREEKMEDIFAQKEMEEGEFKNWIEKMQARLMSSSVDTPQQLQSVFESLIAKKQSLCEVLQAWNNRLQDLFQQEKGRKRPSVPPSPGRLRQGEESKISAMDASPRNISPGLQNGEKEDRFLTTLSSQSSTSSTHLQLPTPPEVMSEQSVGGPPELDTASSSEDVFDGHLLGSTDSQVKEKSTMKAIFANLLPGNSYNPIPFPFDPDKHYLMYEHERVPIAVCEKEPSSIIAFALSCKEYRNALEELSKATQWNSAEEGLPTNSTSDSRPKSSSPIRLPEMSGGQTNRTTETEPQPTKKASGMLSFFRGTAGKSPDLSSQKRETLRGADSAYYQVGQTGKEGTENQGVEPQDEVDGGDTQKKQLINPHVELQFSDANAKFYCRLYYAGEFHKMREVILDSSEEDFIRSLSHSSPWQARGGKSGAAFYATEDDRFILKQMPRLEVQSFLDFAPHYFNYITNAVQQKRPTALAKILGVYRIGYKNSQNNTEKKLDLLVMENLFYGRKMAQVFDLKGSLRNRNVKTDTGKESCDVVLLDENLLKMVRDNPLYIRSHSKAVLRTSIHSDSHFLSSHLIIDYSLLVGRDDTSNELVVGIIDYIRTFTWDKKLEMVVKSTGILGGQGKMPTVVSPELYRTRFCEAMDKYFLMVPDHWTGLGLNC

Compound	IC50
CCC(=O)N1CCC(c2ccn(-c3nc(N4CCOCC4)c4ncccc4n3)n2)CC1 [compound 1, 1-[4-[1-(4-morpholinopyrido[3,2-d]pyrimidin-2-yl)pyrazol-3-yl]-1-piperidyl]propan-1-one]	1000 to 10000 nM
CC(C)(C)OC(=O)N1CC=C(c2ccn(-c3nc(N4CCOCC4)c4ncccc4n3)n2)CC1 [compound 3, tert-butyl 4-[1-(4-morpholinopyrido[3,2-d]pyrimidin-2-yl)pyrazol-3-yl]-3,6-dihydro-2H-pyridine-1-carboxylate]	1000 to 10000 nM
CC(C)(C)OC(=O)N1CCC=C(c2ccn(-c3nc(N4CCOCC4)c4ncccc4n3)n2)C1 [compound 4, tert-butyl 3-(1-(4-morpholinopyrido[3,2-d]pyrimidin-2-yl)-1H-pyrazol-3-yl)-5,6-dihydropyridine-1(2H)-carboxylate]	1000 to 10000 nM
CC(C)(C)OC(=O)N1CCC(c2ccn(-c3nc(N4CCOCC4)c4ncccc4n3)n2)CC1 [compound 5, tert-butyl 4-[1-(4-morpholinopyrido[3,2-d]pyrimidin-2-yl)pyrazol-3-yl]piperidine-1-carboxylate]	1000 to 10000 nM
CC(C)(C)OC(=O)N1CCCC(c2ccn(-c3nc(N4CCOCC4)c4ncccc4n3)n2)C1 (stereo not shown) [compound 6, tert-butyl 3-(1-(4-morpholinopyrido[3,2-d]pyrimidin-2-yl)-1H-pyrazol-3-yl)piperidine-1-carboxylate]	1000 to 10000 nM
c1ccc(Nc2nc(N3CCOCC3)c3ncc(-c4ccco4)cc3n2)cc1 [compound 15, 7-(furan-2-yl)-4-morpholino-N-phenylpyrido[3,2-d]pyrimidin-2-amine]	100 to 1000 nM
c1ccc(Oc2nc(N3CCOCC3)c3ncc(-c4ccco4)cc3n2)cc1 [compound 16, 4-(7-(furan-2-yl)-2-phenoxypyrido[3,2-d]pyrimidin-4-yl)morpholine]	> 10000 nM

The next lines start with the values.

IC50	Compound
1000 to 10000 nM	c1cnc2c(N3CCOCC3)nc(-n3ccc(-c4cncnc4)n3)nc2c1 [compound 2, 4-[2-(3-pyrimidin-5-ylpyrazol-1-yl)pyrido[3,2-d]pyrimidin-4-yl]morpholine]
100 to 1000 nM	c1ccc2nn(-c3nc(N4CCOCC4)c4ncccc4n3)cc2c1 [compound 7, 4-(2-indazol-2-ylpyrido[3,2-d]pyrimidin-4-yl)morpholine]
1000 to 10000 nM	CC(C)c1ccn(-c2nc(N3CCOCC3)c3ncccc3n2)n1 [compound 9, 4-(2-(3-isopropyl-1H-pyrazol-1-yl)pyrido[3,2-d]pyrimidin-4-yl)morpholine]
100 to 1000 nM	c1cnc2c(N3CCOCC3)nc(-n3ccc(-c4ccncc4)n3)nc2c1 [compound 10, 4-(2-(3-(pyridin-4-yl)-1H-pyrazol-1-yl)pyrido[3,2-d]pyrimidin-4-yl)morpholine]
100 to 1000 nM	c1cncc(-c2ccn(-c3nc(N4CCOCC4)c4ncccc4n3)n2)c1 [compound 11, 4-(2-(3-(pyridin-3-yl)-1H-pyrazol-1-yl)pyrido[3,2-d]pyrimidin-4-yl)morpholine]
10 to 100 nM	c1ccc(-c2ccn(-c3nc(N4CCOCC4)c4ncccc4n3)n2)nc1 [compound 12, 4-(2-(3-(pyridin-2-yl)-1H-pyrazol-1-yl)pyrido[3,2-d]pyrimidin-4-yl)morpholine]
100 to 1000 nM	c1ccc(-c2ccn(-c3nc(N4CCOCC4)c4ccncc4n3)n2)cc1 [compound 13]
1000 to 10000 nM	CCc1cnc2c(N3CCOCC3)nc(-n3ccc(-c4ccncc4)n3)nc2c1 [compound 14, 4-(7-Ethyl-2-(3-(pyridin-4-yl)-1H-pyrazol-1-yl)pyrido[3,2-d]pyrimidin-4-yl)morpholine]
10 to 100 nM	c1ccc(-c2ccn(-c3nc(N4CCOCC4)c4ncc(C5CCCOC5)cc4n3)n2)cc1 (stereo not shown) [compound 19, 4-(2-(3-Phenyl-1H-pyrazol-1-yl)-7-(tetrahydro-2H-pyran-3-yl)pyrido[3,2-d]pyrimidin-4-yl)morpholine]

Same assay, conditions: values plotted in FIG. 7; read-out: PIKFYVE Biochemistry (IC50)

Compound	IC50
c1ccc(-c2nc(-c3cc(N4CCOCC4)nc(OCc4ccncc4)n3)no2)cc1	> 10000 nM
O=c1c(CCOc2cccnc2)cc2ncncc2n1-c1ccccc1	> 10000 nM
O=c1ccn(Cc2nc(N3CCOCC3)cc(-n3nccc3-c3ccccc3)n2)cc1	> 10000 nM
